From ChEMBL document CHEMBL4665744, “Diverse Types of Diterpenoids with an Aromatized C Ring from the Twigs of Podocarpus imbricatus” (J Nat Prod, 2020)
Active and inactive are the calls of the source. The rule behind the calls is not given here.

Legend:
Zika virus = test: Antiviral activity against Zika virus; format: functional, organism-based
[1] = Cytotoxicity activity against African green monkey Vero cells assessed as reduction in cell viability by MTT assay; format: cell-based; conditions: chlorocebus sabaeus

Row | Structure (SMILES) | Activity (Zika virus) | also measured
1 | CC(C)c1cc2c(cc1O)[C@@H](O)[C@@H](O)[C@H]1[C@](C)(CO)CCC[C@]21C |  | IC50 (Zika virus): 2.5 µM
2 | COc1c(C)c2c(c(O)c1C/C=C(\C)CCC(=O)O)C(=O)OC2 [MYCOPHENOLIC ACID] |  | CC50 [1]: 18.7 µM
3 | C[C@H](CO)c1cc2c(cc1O)[C@@]1(C)CCC[C@](C)(C(=O)O)[C@@H]1CC2 | inactive | 
4 | CC(C)c1cc2c(cc1O)C[C@@H](O)[C@H]1[C@](C)(CO)CCC[C@]21C | inactive | 
5 | CC(C)c1c(O)ccc2c1CC[C@H]1C(C)(C)CC[C@@H](O)[C@]21C | inactive | 
